Drawing on ChEMBL document CHEMBL1127402, “Orally active non-peptide fibrinogen receptor (GpIIb/IIIa) antagonists: identification of 4-[4-[4-(aminoiminomethyl)phenyl]-1-piperazinyl]-1-piperidineacetic acid as a long-acting, broad-spectrum antithrombotic agent” (J Med Chem, 1994), this text covers IC50 for 4 compounds.

The species named for the assay is Homo sapiens. The assay can be described thus: Inhibition of 10 uM ADP induced aggregation in human gel filtered platelets in the presence fibrinogen and aspirin. Format: functional.
As to `N=C(N)c1ccc(-c2ccc(N3CC[N+](CC(=O)O)(Cc4ccccc4)CC3)cc2)cc1`, the midpoint of inhibition, the IC50, lay at 31 nM.
For `CCN(CC)CCO[C@H]1CC[C@H]([C@H]2CC[C@](O)(CC(=O)O)CC2)CC1`, it took 54000 nM to reach half-maximal inhibition (IC50).
For `N/C(=N\CC(F)(F)F)c1ccc(-c2ccc(C3=CCC(O)(CC(=O)O)CC3)cc2)cc1` (centres undefined) the value was 210 nM.
In the case of `N=C(N)c1ccc(N2CCN(C3CCN(CC(=O)O)CC3)CC2)cc1`, half-maximal inhibition (IC50) required 37 nM.

By IC50 is commonly meant the point on the concentration scale where inhibition reaches its midpoint.
